Test results taken from patent US6461844B1, “Liver GalNAc-1-phosphate kinase” (The Board of Trustees of the University of Arkansas, priority 1995, dated 2002).

Key:
GalNAc kinase [1] = biological target: T1, GalNAc kinase (Sus scrofa, UniProt A0A287BB25); assay: Phosphate donor specificity of GalNAc kinase; type: biochemical, pig; parameters: Radioactivity in Sugar-P: unit not given beside the values; conditions: for Radioactivity in Sugar-P / Specific Activity: nucleotide added at 5 mM
T1 construct: This enzyme was purified about 1400-fold from the cytosolic fraction of pig kidney; from tissue; host or cells: pig kidney cytosol
T1 sequence (A0A287BB25 1-458): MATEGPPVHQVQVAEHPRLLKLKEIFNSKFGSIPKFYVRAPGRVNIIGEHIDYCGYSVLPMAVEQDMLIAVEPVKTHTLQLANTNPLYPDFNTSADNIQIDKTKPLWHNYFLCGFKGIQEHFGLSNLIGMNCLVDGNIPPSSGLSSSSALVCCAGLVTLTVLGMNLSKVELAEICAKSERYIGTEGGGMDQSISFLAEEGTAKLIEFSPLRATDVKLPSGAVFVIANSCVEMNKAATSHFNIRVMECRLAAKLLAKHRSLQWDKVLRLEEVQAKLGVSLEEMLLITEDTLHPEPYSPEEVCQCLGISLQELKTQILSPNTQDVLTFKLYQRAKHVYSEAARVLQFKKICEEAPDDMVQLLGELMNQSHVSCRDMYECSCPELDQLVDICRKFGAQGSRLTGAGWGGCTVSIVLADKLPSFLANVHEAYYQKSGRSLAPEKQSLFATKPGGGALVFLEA

GalNAc kinase [2] = biological target: T1, GalNAc kinase; assay: Divalent cation requirement of GalNAc kinase; type: biochemical, pig; conditions: for stimulation of the kinase: tested at a variety of concentrations
Method: FIG. 1 illustrates the effect of various divalent cations on the GalNAc kinase. Various amounts of Mg^++, Mn^++, or Co^++ were added to incubations prepared as indicated below. The amount of GalNAc phosphorylated in each incubation by the purified enzyme was determined as described in the assay conditions.
(§1) GalNAc kinase activity was assayed in incubation mixtures of 200 μl containing the following components: [^3H]GalNAc (10,000 cpm), 1 μmole of ATP, 2 μmoles of MgCl2, 20 μmoles of Tris-HCl buffer, pH 7.5, and various amounts of the enzyme preparations to be assayed. Following an incubation for the appropriate time, the reaction was stopped by heating at 100° C. for 5 min., and the incubation mixture was applied to a column of DE-52. The column was washed with at least 5 column volumes of 10 mM (NH4)HCO3 buffer to remove unbound material, and then GalNAc phosphate was eluted with 500 mM ammonium bicarbonate. Aliquots of the wash and eluent were removed and assayed for their radioactive content by scintillation counting.
The addition of Mg^++ greatly stimulated the activity, and maximum activity occurred at 6 mM Mg^++. Other divalent cations, such as Mn^++ and Co^++ were also somewhat stimulatory, but much less so than Mg^++.

GalNAc kinase [3] = biological target: T1, GalNAc kinase; assay: Sugar specificity of GalNAc kinase; type: biochemical, pig; conditions: for Radioactivity Incorp.: labeled sugars of same specific activity; for activity as phosphate acceptor: purified kinase; for activity as % of the activity observed with GalNAc: sugar as substrate
Method: as §1
A variety of sugars were tested and in each case the specific radioactivity of the labeled sugar was adjusted with unlabeled material so that all were of the same specific activity in order to allow a true comparison of their ability to serve as substrates for the kinase. The amount of radioactivity that bound to DE-52 and was eluted with (NH4)HCO3 was taken as a measure of phosphorylation by the enzyme.

yeast galactokinase = biological target: T2, yeast galactokinase (Saccharomyces cerevisiae, UniProt P04385); assay: Sugar specificity of yeast galactokinase; type: biochemical; conditions: for Radioactivity Incorporated (Δ cpm): minus 0 ul value
T2 construct: purchased Sigma Chemical Co
T2 sequence (P04385 1-528): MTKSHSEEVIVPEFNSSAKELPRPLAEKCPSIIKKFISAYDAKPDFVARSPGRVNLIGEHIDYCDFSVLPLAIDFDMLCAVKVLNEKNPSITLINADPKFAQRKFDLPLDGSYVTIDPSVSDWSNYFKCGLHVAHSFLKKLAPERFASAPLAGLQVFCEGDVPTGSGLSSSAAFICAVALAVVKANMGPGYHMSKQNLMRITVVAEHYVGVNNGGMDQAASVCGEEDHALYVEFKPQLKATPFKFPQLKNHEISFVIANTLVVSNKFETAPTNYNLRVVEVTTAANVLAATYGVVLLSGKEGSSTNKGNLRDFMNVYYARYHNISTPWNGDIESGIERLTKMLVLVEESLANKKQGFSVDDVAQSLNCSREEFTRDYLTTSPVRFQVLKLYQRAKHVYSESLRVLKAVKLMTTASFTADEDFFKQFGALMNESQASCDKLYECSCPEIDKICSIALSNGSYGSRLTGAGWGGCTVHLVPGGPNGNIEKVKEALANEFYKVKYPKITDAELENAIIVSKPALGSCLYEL
Description: Galactokinase is an enzyme known to phosphorylate galactose in the one position. […] The specificity of the galactokinase and the GalNAc kinase indicate that they are two different enzymes.

Row | Radioactivity in Sugar-P (GalNAc kinase [1]) | Specific Activity (GalNAc kinase [1]) [nmol/mg] | Radioactivity Incorp. (GalNAc kinase [3]; 4 μl enzyme) | Radioactivity Incorp. (GalNAc kinase [3]; 8 μl enzyme) | Radioactivity Incorporated (yeast galactokinase; 2 ul enzyme) [cpm] | Radioactivity Incorporated (Δ cpm) (yeast galactokinase; 2 ul enzyme) [cpm] | Radioactivity Incorporated (yeast galactokinase; 4 ul enzyme) [cpm] | SMILES | further results
1 | 260 | 4.0 | – | – | – | – | – | Nc1ncnc2c1ncn2[C@@H]1O[C@H](COP(=O)(O)OP(=O)(O)O)[C@@H](O)[C@H]1O [ADP] | activity as phosphate donor (GalNAc kinase [1]): only slightly above background levels
2 | 490 | 7.6 | – | – | – | – | – | Nc1ccn([C@@H]2O[C@H](COP(=O)(O)OP(=O)(O)O)[C@@H](O)[C@H]2O)c(=O)n1 [CDP] | activity as phosphate donor (GalNAc kinase [1]): only slightly above background levels
3 | 370 | 5.8 | – | – | – | – | – | Nc1ccn([C@@H]2O[C@H](COP(=O)(O)OP(=O)(O)OP(=O)(O)O)[C@@H](O)[C@H]2O)c(=O)n1 [CTP] | activity as phosphate donor (GalNAc kinase [1]): only slightly above background levels
4 | – | – | – | – | – | – | – | [Ca+2] [Ca^++] | stimulation of the kinase (GalNAc kinase [2]): inactive
5 | – | – | – | – | – | – | – | [Co+2] [Co^++] | cation concentration for maximum (optimum) activity (GalNAc kinase [2]): 10 mM; maximum activity relative to optimum concentrations of Mg++ (GalNAc kinase [2]; at optimum cation concentration): about 50%
6 | – | – | – | – | – | – | – | [Cu+2] [Cu^++] | stimulation of the kinase (GalNAc kinase [2]): inactive
7 | – | – | – | – | – | – | – | [Fe+3] [Fe^+++] | stimulation of the kinase (GalNAc kinase [2]): inactive
8 | 10 | 0.1 | – | – | – | – | – | Nc1nc2c(ncn2[C@@H]2O[C@H](COP(=O)(O)OP(=O)(O)O)[C@@H](O)[C@H]2O)c(=O)[nH]1 [GDP] | –
9 | 300 | 4.7 | – | – | – | – | – | Nc1nc2c(ncn2[C@@H]2O[C@H](COP(=O)(O)OP(=O)(O)OP(=O)(O)O)[C@@H](O)[C@H]2O)c(=O)[nH]1 [GTP] | activity as phosphate donor (GalNAc kinase [1]): only slightly above background levels
10 | – | – | 301 cpm | 442 cpm | 6900 | 6835 | 7530 | O=C[C@H](O)[C@@H](O)[C@@H](O)[C@H](O)CO [Gal, galactose] | activity as phosphate acceptor (GalNAc kinase [3]): inactive; activity as % of the activity observed with GalNAc (GalNAc kinase [3]): 1%; activity as substrate of yeast galactokinase (yeast galactokinase): very active; Radioactivity Incorporated (Δ cpm) (yeast galactokinase; 4 ul enzyme): 7465 cpm
11 | – | – | 449 cpm | 468 cpm | 300 | 173 | 440 | N[C@H]1C(O)O[C@H](CO)[C@H](O)[C@@H]1O (stereo partly drawn) [GalN, galactosamine] | activity as phosphate acceptor (GalNAc kinase [3]): inactive; activity as % of the activity observed with GalNAc (GalNAc kinase [3]): 1%; activity as substrate of yeast galactokinase (yeast galactokinase): slight activity
12 | – | – | 14,094 cpm | 18,448 cpm | 37 | 0 | 83 | CC(=O)N[C@H]1C(O)O[C@H](CO)[C@H](O)[C@@H]1O (stereo partly drawn) [GalNAc, N-acetylgalactosamine] | activity as substrate of yeast galactokinase (yeast galactokinase): no phosphorylation; Radioactivity Incorporated (Δ cpm) (yeast galactokinase; 4 ul enzyme): 11 cpm
13 | – | – | 189 cpm | 206 cpm | 135 | 0 | 150 | N[C@H]1C(O)O[C@H](CO)[C@@H](O)[C@@H]1O (stereo partly drawn) [GlcN, glucosamine] | activity as phosphate acceptor (GalNAc kinase [3]): inactive; Radioactivity Incorporated (Δ cpm) (yeast galactokinase; 4 ul enzyme): 0 cpm
14 | – | – | 135 cpm | 147 cpm | 133 | 60 | 84 | CC(=O)N[C@H]1C(O)O[C@H](CO)[C@@H](O)[C@@H]1O (stereo partly drawn) [GlcNAc, N-acetylglucosamine] | activity as phosphate acceptor (GalNAc kinase [3]): inactive; Radioactivity Incorporated (Δ cpm) (yeast galactokinase; 4 ul enzyme): 10 cpm
